# Results reported in patent US9695155B2, “Herbicidal substituted pyrimidinyloxy benzene compounds” (E. I. DU PONT DE NEMOURS AND COMPANY, priority 2013, dated 2017).
# Legend:
# palmer pigweed = assay: Test E preemergence; type: in vivo, Amaranthus palmeri; details: for Pigweed, Palmer plant response rating: scale 0 to 100 (0 no effect, 100 complete control); for Plant response rating, Pigweed, Palmer: scale 0 to 100, 0 no effect, 100 complete control
# In short: (§1)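 Compound in a non-phytotoxic solvent mixture with surfactant was applied preemergence to seeds in silt loam soil, or postemergence to plants 2 to 18 cm tall grown in peat-based potting medium. Plants were kept in a greenhouse for 14 to 21 days, then rated visually against untreated controls on a 0 (no effect) to 100 (complete control) scale.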
# sedge, umbrella = assay: Test C flooded paddy test; type: in vivo, Cyperus difformis; details: Flood, scale 0 to 100 (0 no effect, 100 complete control), 13 to 15 days
# In short: (§2)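 Pots were flooded to 3 cm above the soil surface at treatment, compound applied directly to the paddy water, and that depth held throughout. Plants were kept in a greenhouse for 13 to 15 days, then visually rated against untreated controls.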
# yellow nutsedge = assay: Test E preemergence; type: in vivo, Cyperus esculentus; details: for Nutsedge, Yellow plant response rating: scale 0 to 100 (0 no effect, 100 complete control); for Plant response rating, Nutsedge, Yellow: scale 0 to 100, 0 no effect, 100 complete control
# In short: as §1
# blackgrass = assay: Test A postemergence; type: in vivo, Alopecurus myosuroides; details: 0 to 100 scale where 0 is no effect and 100 is complete control
# In short: (§3)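 Pre- and postemergence greenhouse screen. Soil: loam + sand. Spray carrier: solvent mixture, non-phytotoxic, with surfactant. Post timing at 1–2 leaves, height 2–10 cm. Readout: visual injury on a 0–100 scale roughly 10 days after application, untreated plants as reference.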
# Brazilian crabgrass = assay: Test E preemergence; type: in vivo, Digitaria horizontalis; details: for Crabgrass, Brazil plant response rating: scale 0 to 100 (0 no effect, 100 complete control); for Plant response rating, Crabgrass, Brazil: scale 0 to 100, 0 no effect, 100 complete control
# In short: as §1
# kochia = assay: Test A preemergence; type: in vivo, Kochia scoparia
# In short: as §3
# field bindweed = assay: Test E preemergence; type: in vivo, Convolvulus arvensis; details: for Field Bindweed plant response rating: scale 0 to 100 (0 no effect, 100 complete control); for Plant response rating, Field Bindweed: scale 0 to 100, 0 no effect, 100 complete control
# In short: as §1
# arrowleaf sida = assay: Test E preemergence; type: in vivo, Sida rhombifolia; details: for Plant response rating, Arrowleaf Sida: scale 0 to 100, 0 no effect, 100 complete control
# In short: as §1
# rice = assay: Test C flooded paddy test; type: in vivo, Oryza sativa; details: Flood, scale 0 to 100 (0 no effect, 100 complete control), 13 to 15 days
# In short: as §2
# corn = assay: Test E preemergence; type: in vivo, Zea mays; details: for Corn plant response rating: scale 0 to 100 (0 no effect, 100 complete control); for Plant response rating, Corn: scale 0 to 100, 0 no effect, 100 complete control
# In short: as §1
# Italian ryegrass = assay: Test A preemergence; type: in vivo, Lolium multiflorum
# In short: as §3
# lambsquarters = assay: Test E preemergence; type: in vivo, Chenopodium album; details: for Lambsquarters plant response rating: scale 0 to 100 (0 no effect, 100 complete control); for Plant response rating, Lambsquarters: scale 0 to 100, 0 no effect, 100 complete control
# In short: as §1
# velvetleaf = assay: Test E preemergence; type: in vivo, Abutilon theophrasti; details: for Velvetleaf plant response rating: scale 0 to 100 (0 no effect, 100 complete control); for Plant response rating, Velvetleaf: scale 0 to 100, 0 no effect, 100 complete control
# In short: as §1
# waterhemp = assay: Test E preemergence; type: in vivo, Amaranthus rudis; details: for Waterhemp plant response rating: scale 0 to 100 (0 no effect, 100 complete control); for Plant response rating, Waterhemp: scale 0 to 100, 0 no effect, 100 complete control
# In short: as §1
# johnsongrass = assay: Test E preemergence; type: in vivo, Sorghum halepense; details: for Johnsongrass plant response rating: scale 0 to 100 (0 no effect, 100 complete control); for Plant response rating, Johnsongrass: scale 0 to 100, 0 no effect, 100 complete control
# In short: as §1
# [1] = 125 g ai/ha, 0 to 100 scale where 0 is no effect and 100 is complete control
# [2] = 500 g ai/ha, 0 to 100 scale, 0 no effect, 100 complete control, approx. 10 days
structure (smiles),measurement,setting,value
CCOc1cnn(-c2c(C#N)cccc2Oc2ncc(F)cn2)c1 [Compound 89],"Pigweed, Palmer plant response rating",palmer pigweed; 31 g ai/ha,0
same,"Pigweed, Palmer plant response rating",palmer pigweed; 62 g ai/ha,0
same,"Plant response rating, Pigweed, Palmer",palmer pigweed; 125 g ai/ha,40
same,"Plant response rating, Pigweed, Palmer",palmer pigweed; 250 g ai/ha,100
same,"Plant response rating, Sedge, Umbrella","sedge, umbrella; 62 g ai/ha",0
same,"Plant response rating, Sedge, Umbrella","sedge, umbrella; 125 g ai/ha",50
same,"Plant response rating, Sedge, Umbrella","sedge, umbrella; 250 g ai/ha",70
same,"Nutsedge, Yellow plant response rating",yellow nutsedge; 31 g ai/ha,0
same,"Nutsedge, Yellow plant response rating",yellow nutsedge; 62 g ai/ha,0
same,"Plant response rating, Nutsedge, Yellow",yellow nutsedge; 125 g ai/ha,20
same,"Plant response rating, Nutsedge, Yellow",yellow nutsedge; 250 g ai/ha,35
same,"Plant response rating, Blackgrass",blackgrass; 125 g ai/ha,40
same,"Plant response rating, Blackgrass",blackgrass; 500 g ai/ha,90
same,"Crabgrass, Brazil plant response rating",Brazilian crabgrass; 31 g ai/ha,20
same,"Crabgrass, Brazil plant response rating",Brazilian crabgrass; 62 g ai/ha,90
same,"Plant response rating, Crabgrass, Brazil",Brazilian crabgrass; 125 g ai/ha,100
same,"Plant response rating, Crabgrass, Brazil",Brazilian crabgrass; 250 g ai/ha,100
same,"Plant response rating, Kochia",kochia; [1],90
same,Kochia plant response rating,kochia; [2],100
same,Field Bindweed plant response rating,field bindweed; 31 g ai/ha,35
same,Field Bindweed plant response rating,field bindweed; 62 g ai/ha,75
same,"Plant response rating, Field Bindweed",field bindweed; 125 g ai/ha,95
same,"Plant response rating, Field Bindweed",field bindweed; 250 g ai/ha,90
same,Arrowleaf Sida plant response rating,"arrowleaf sida; 31 g ai/ha, preemergence, scale 0 to 100 (0 no effect, 100 complete control)",50
same,"Plant response rating, Arrowleaf Sida","arrowleaf sida; Preemergence, 62 g ai/ha",75
same,"Plant response rating, Arrowleaf Sida","arrowleaf sida; preemergence, 125 g ai/ha",100
same,"Plant response rating, Arrowleaf Sida","arrowleaf sida; preemergence, 250 g ai/ha",100
same,"Plant response rating, Rice",rice; 62 g ai/ha,0
same,"Plant response rating, Rice",rice; 125 g ai/ha,0
same,"Plant response rating, Rice",rice; 250 g ai/ha,0
same,Corn plant response rating,corn; 31 g ai/ha,0
same,Corn plant response rating,corn; 62 g ai/ha,0
same,"Plant response rating, Corn",corn; 125 g ai/ha,30
same,"Plant response rating, Corn",corn; 250 g ai/ha,70
same,"Plant response rating, Ryegrass, Italian",Italian ryegrass; [1],0
same,"Ryegrass, Italian plant response rating",Italian ryegrass; [2],10
same,Lambsquarters plant response rating,lambsquarters; 31 g ai/ha,20
same,Lambsquarters plant response rating,lambsquarters; 62 g ai/ha,5
same,"Plant response rating, Lambsquarters",lambsquarters; 125 g ai/ha,95
same,"Plant response rating, Lambsquarters",lambsquarters; 250 g ai/ha,100
same,Velvetleaf plant response rating,velvetleaf; 31 g ai/ha,20
same,Velvetleaf plant response rating,velvetleaf; 62 g ai/ha,65
same,"Plant response rating, Velvetleaf",velvetleaf; 125 g ai/ha,90
same,"Plant response rating, Velvetleaf",velvetleaf; 250 g ai/ha,100
same,Waterhemp plant response rating,waterhemp; 31 g ai/ha,0
same,Waterhemp plant response rating,waterhemp; 62 g ai/ha,70
same,"Plant response rating, Waterhemp",waterhemp; 125 g ai/ha,80
same,"Plant response rating, Waterhemp",waterhemp; 250 g ai/ha,100
same,Johnsongrass plant response rating,johnsongrass; 31 g ai/ha,0
same,Johnsongrass plant response rating,johnsongrass; 62 g ai/ha,10
same,"Plant response rating, Johnsongrass",johnsongrass; 125 g ai/ha,50
same,"Plant response rating, Johnsongrass",johnsongrass; 250 g ai/ha,100
